Laboratory results from article PMC11477482 (Molecules, 2024).
“Also recorded” adds a separate entry of the source.

Legend:
[1] = Cellular metabolic activity, resazurin reduction assay, HaCaT; type: cell-based, human; conditions: human, HaCaT keratinocytes; HaCaT, resazurin, 24 h, concentrations greater than or equal to 500 µM; read-out: cell viability
Procedure: (§1) The human keratinocytes (HaCaT, CLS 300493, Eppelheim, Germany) cell line was cultured with Dulbecco’s Modified Eagle’s Medium (DMEM) (Sigma-Aldrich, St. Louis, MO, USA), supplemented with 10% (v/v) of heat-inactivated fetal bovine serum (FBS), 1% (v/v) antibiotic solution (from a 10,000 U/mL penicillin and 10,000 μg/mL streptomycin stock) (Gibco, Carlsbad, CA, USA), 3.7 g/L sodium bicarbonate, and 1 mM sodium pyruvate (Sigma-Aldrich, St. Louis, MO, USA). The cell culture of keratinocytes was detached with EDTA solution 1X (Sigma-Aldrich, St. Louis, MO, USA) when the cells reached 70–80% confluence in cell culture flasks. The mouse macrophage cell line (RAW 264.7, ATCC TIB-71, Manassas, VA, USA) was cultured in DMEM supplemented with 10% (v/v) non-inactivated FBS, 1% (v/v) antibiotic solution, 1.5 g/L sodium bicarbonate, and 1 mM sodium pyruvate. Macrophages were mechanically detached with a cell scraper and subcultured in (1:10) proportion of cellular suspension to a final volume of DMEM. […] The metabolic activity of human epidermal keratinocytes (HaCaT), murine macrophages (RAW264.7), and human monocytes (THP-1) was assessed using a resazurin reduction assay. […] The absorbance was read at 570 and 620 nm using a SpectraMax Plus 384 absorbance microplate spectrophotometer (Molecular Devices, San Jose, CA, USA). […]

[2] = system: B16 cells; conditions: 4 mM, compared to 3-O-ethyl ascorbic acid, ref [15],[16],[17]; cited from earlier work
[3] = system: HaCaT cells; assay: Cellular metabolic activity, resazurin reduction assay, HaCaT; type: cell-based, human; conditions: HaCaT keratinocytes, concentrations examined (abstract: up to 500 µM)
Procedure: as §1

[4] = system: RAW264.7 cells; assay: Cellular metabolic activity, resazurin reduction assay, RAW264.7; type: cell-based, mouse; conditions: RAW264.7 macrophages, concentrations examined (abstract: up to 500 µM)
Procedure: as §1

[5] = system: THP-1 cells; assay: Cellular metabolic activity, resazurin reduction assay, THP-1; type: cell-based, human; conditions: THP-1 monocytes, concentrations examined (abstract: up to 500 µM)
Procedure: as §1

SMILES	viability at 24 h [1] [%]	lightening effect [2]	effect on cell viability / metabolic activity [3]	effect on cell viability / metabolic activity [4]	effect on cell viability / metabolic activity [5]
O=C1O[C@H]([C@@H](O)CO)C(O)=C1O[C@H]1O[C@H](CO)[C@@H](O)[C@H](O)[C@H]1O [AAG, 2-O-α-D-glucopyranosyl-L-ascorbic acid]	> 70	better lightening effect			
O=C1OC(C(COS(=O)(=O)O)OS(=O)(=O)O)C(OS(=O)(=O)O)=C1OC1OC(COS(=O)(=O)O)C(OS(=O)(=O)O)C(OS(=O)(=O)O)C1OS(=O)(=O)O [AAGS, 2-O-α-D-glucopyranosyl-L-ascorbic acid persulfate]			did not adversely impact cell viability; also recorded: did not affect the metabolic activity	did not adversely impact cell viability; also recorded: did not affect the metabolic activity	did not adversely impact cell viability; also recorded: did not affect the metabolic activity
